Reference: US10954269B2, “Anti-inflammatory tripeptides” (Dr. August Wolff Gmbh & Co. KG Arzneimittel, priority 2013, dated 2021)

Experiments:
primary human T-cells = assay: Cytokine secretion on protein level in activated primary human T-cells (13-plex FACS / Luminex, supernatant); type: cell-based; settings: for IL-1 cytokine concentration / IL-2 cytokine concentration / IL-4 cytokine concentration / IL-5 cytokine concentration / IL-6 cytokine concentration / IL-9 cytokine concentration / IL-10 cytokine concentration / IL-12p70 cytokine concentration / IL-13 cytokine concentration / IL-17 cytokine concentration / IL-22 cytokine concentration / TNF-α cytokine concentration / INF-α cytokine concentration: substance 10^−9M
Method: (§1) Primary T-cells were isolated from peripheral blood from healthy volunteers and from secondary lymphatic organs from naïve C57BL/6 mice, respectively. The cells were stimulated with phorbol-12-myristate-13-acetate (PMA)/Ionomycin and interferon-gamma (IFN-γ), respectively, for 48 h to activate the cells. The activated cells release pro-inflammatory cytokines. In parallel a human (HaCaT) keratinocyte cell line was activated with PMA/Ionomycin and IFN-γ, respectively, too. […] At the same time release of anti-inflammatory IL-10 was inhibited. Two days after addition of PMA/Ionomycin and IFN-γ, respectively, the induction of IL-1 secretion was determined in the supernatant for proving that the cells are activated. […] The anti-inflammatory properties of the tripeptides were determined 48 h and 72 h following stimulation. A 13-plex-system based FACS analysis was used for showing the reduced secretion of pro-inflammatory cytokines in the supernatant. Data for IL-1, IL-2, IL-6, IL-12p70 IL-17, IFN-γ and TNF-α are considered to be most relevant. Thus, analysis of the anti-inflammatory properties of the tripeptides is preferably based on the results obtained for these analytes. […] Using this method the gene expression of pro-inflammatory markers like IL-6, IL-17, IFN-γ and TNF-α was determined.
(§2) In a third experiment murine and human T cells and HaCaT cells were stimulated with PMA/Ionomycin and treated with Examples 14, 15, 16 and 17 at 10^−7 M, 10^−9 M and 10^−11 M. Cytokine concentrations (IFN-γ, IL-17 and IL-10 for T cells and IFN-γ for HaCat) were assessed in the supernatants using the Luminex technology. Expression of genes coding for Il-1β, IL-6 and TNF-α was determined. […] Moreover, concentrations of pro-inflammatory cytokines IFN-γ and IL-17 was reduced in the supernatants whereas the concentration of anti-inflammatory cytokine IL-10 was increased. […]
(§3) For the biological assay two human cell lines of different origin were chosen to allow for translation of the results obtained. A HaCaT cell is a cell type belonging to an immortal human keratinocyte line used in scientific research. Its use in research allows for the characterization of human keratinocyte using a model that is reproducible and representing a human epithelial cell line. In contrast human T-lymphocytes (T-cells) are a type of lymphocyte (itself a type of white blood cell) that play a central role in cell-mediated inflammation/immunity.

[1] = system: human keratinocyte cell line (HaCaT); assay: Cytokine secretion on protein level in activated human keratinocyte cell line HaCaT (13-plex FACS / Luminex, supernatant); type: cell-based; settings: substance 10^−9M
Method: as §1, §2, §3

[2] = primary human T-cells stimulated with IFN-γ
[3] = primary human T-cells stimulated with PBS
[4] = primary human T-cells stimulated with PMA/Ionomycin

Substance: H-(L)-Nle-(L)-Pro-Aib-OH [Example 12]
- secretion / expression of pro-inflammatory cytokines (supernatant) (primary human T-cells; activated primary human T-cells): able to reduce
- IL-1 cytokine concentration (primary human T-cells; [2]): 44.77 pg/mL
- IL-2 cytokine concentration (primary human T-cells; [2]): 0 pg/mL
- IL-4 cytokine concentration (primary human T-cells; [2]): 0 pg/mL
- IL-5 cytokine concentration (primary human T-cells; [2]): 0 pg/mL
- IL-6 cytokine concentration (primary human T-cells; [2]): 60.44 pg/mL
- IL-9 cytokine concentration (primary human T-cells; [2]): 7.67 pg/mL
- IL-10 cytokine concentration (primary human T-cells; [2]): 84.25 pg/mL
- IL-12p70 cytokine concentration (primary human T-cells; [2]): 0 pg/mL
- IL-13 cytokine concentration (primary human T-cells; [2]): 0 pg/mL
- IL-17 cytokine concentration (primary human T-cells; [2]): 0 pg/mL
- IL-22 cytokine concentration (primary human T-cells; [2]): 0 pg/mL
- TNF-α cytokine concentration (primary human T-cells; [2]): 41.38 pg/mL
- IL-1 cytokine concentration (primary human T-cells; [3]): 0 pg/mL
- IL-2 cytokine concentration (primary human T-cells; [3]): 0 pg/mL
- IL-4 cytokine concentration (primary human T-cells; [3]): 0 pg/mL
- IL-5 cytokine concentration (primary human T-cells; [3]): 0 pg/mL
- IL-6 cytokine concentration (primary human T-cells; [3]): 91.86 pg/mL
- IL-9 cytokine concentration (primary human T-cells; [3]): 0 pg/mL
- IL-10 cytokine concentration (primary human T-cells; [3]): 189.65 pg/mL
- IL-12p70 cytokine concentration (primary human T-cells; [3]): 0 pg/mL
- IL-13 cytokine concentration (primary human T-cells; [3]): 0 pg/mL
- IL-17 cytokine concentration (primary human T-cells; [3]): 104.68 pg/mL
- IL-22 cytokine concentration (primary human T-cells; [3]): 0 pg/mL
- INF-α cytokine concentration (primary human T-cells; [3]): 0 pg/mL
- TNF-α cytokine concentration (primary human T-cells; [3]): 41.38 pg/mL
- IL-1 cytokine concentration (primary human T-cells; [4]): 548.85 pg/mL
- IL-2 cytokine concentration (primary human T-cells; [4]): 2751.28 pg/mL
- IL-4 cytokine concentration (primary human T-cells; [4]): 73.38 pg/mL
- IL-5 cytokine concentration (primary human T-cells; [4]): 328.24 pg/mL
- IL-6 cytokine concentration (primary human T-cells; [4]): 1046.79 pg/mL
- IL-9 cytokine concentration (primary human T-cells; [4]): 286.89 pg/mL
- IL-10 cytokine concentration (primary human T-cells; [4]): 992.02 pg/mL
- IL-12p70 cytokine concentration (primary human T-cells; [4]): 0 pg/mL
- IL-13 cytokine concentration (primary human T-cells; [4]): 1026.08 pg/mL
- IL-17 cytokine concentration (primary human T-cells; [4]): 1355.07 pg/mL
- IL-22 cytokine concentration (primary human T-cells; [4]): 0 pg/mL
- INF-α cytokine concentration (primary human T-cells; [4]): 9454.26 pg/mL
- TNF-α cytokine concentration (primary human T-cells; [4]): 2985.72 pg/mL
- activity (reduction of pro-inflammatory cytokines) relative to K(D)PT (primary human T-cells; second experiment, all three cellular models): comparable
- IL-1 cytokine concentration ([1]; HaCaT stimulated with IFN-γ): 9.31 pg/mL
- IL-2 cytokine concentration ([1]; HaCaT stimulated with IFN-γ): 0 pg/mL
- IL-4 cytokine concentration ([1]; HaCaT stimulated with IFN-γ): 69.91 pg/mL
- IL-5 cytokine concentration ([1]; HaCaT stimulated with IFN-γ): 0 pg/mL
- IL-6 cytokine concentration ([1]; HaCaT stimulated with IFN-γ): 297.09 pg/mL
- IL-9 cytokine concentration ([1]; HaCaT stimulated with IFN-γ): 0 pg/mL
- IL-10 cytokine concentration ([1]; HaCaT stimulated with IFN-γ): 0 pg/mL
- IL-12p70 cytokine concentration ([1]; HaCaT stimulated with IFN-γ): 0 pg/mL
- IL-13 cytokine concentration ([1]; HaCaT stimulated with IFN-γ): 195.68 pg/mL
- IL-17 cytokine concentration ([1]; HaCaT stimulated with IFN-γ): 56.13 pg/mL
- IL-22 cytokine concentration ([1]; HaCaT stimulated with IFN-γ): 0 pg/mL
- TNF-α cytokine concentration ([1]; HaCaT stimulated with IFN-γ): 0 pg/mL
- IFN-γ cytokine concentration ([1]; HaCaT stimulated with PBS): 0 pg/mL
- IL-1 cytokine concentration ([1]; HaCaT stimulated with PBS): 0 pg/mL
- IL-2 cytokine concentration ([1]; HaCaT stimulated with PBS): 0 pg/mL
- IL-4 cytokine concentration ([1]; HaCaT stimulated with PBS): 0 pg/mL
- IL-5 cytokine concentration ([1]; HaCaT stimulated with PBS): 0 pg/mL
- IL-6 cytokine concentration ([1]; HaCaT stimulated with PBS): 56.87 pg/mL
- IL-9 cytokine concentration ([1]; HaCaT stimulated with PBS): 4.96 pg/mL
